The source of these data is US20260115173A1 (University of Houston System, priority 2022, published 2026).

The subject of one data set is mice of both sexes. The conditions noted are these: cited from earlier work.
The next data set has as its system male or female rats. The conditions noted are these: cited from earlier work.
In data set [1] the test system is rats. The conditions noted are these: rat, in vivo; cited from earlier work.
The subject of another data set is mice. The conditions noted are these: i.p., cited from earlier work.
For data set [2] the following is noted: 15-30 mg/kg; cited from earlier work.
The conditions of data set [3]: 15-30 mg/kg; cited from earlier work. The source holds these as a separate data set.
A further data set deals with male Sprague Dawley rats. The conditions noted are these: cited from earlier work.
Another data set deals with male rats. The conditions noted are these: male Sprague Dawley rats, 10-30 mg/kg ip vs 1, 5, 10 mg/kg i.p.; cited from earlier work.
The subject of data set [4] is female Sprague Dawley rats. The experiment in a line: Operant alcohol (10%) self-administration, FR2 schedule, 60-min sessions. In kind it is in vivo, rat. The conditions noted are these: for Active lever presses, post-hoc comparison with vehicle / Estimated total alcohol intake, post-hoc comparison with vehicle / Number of head entries, comparison with vehicle / Number of reinforcers earned, post-hoc comparison with vehicle: 0.3, 1.0, 3.0 mg/kg IP vs vehicle, decrease, Tukey's test. From the text: (§1) Animals. A total of 10 female Sprague Dawley rats (Charles River, Wilmington, MA) were used for the alcohol self-administration studies. […] These same rats were used in the cFos immunohistochemistry study. Rats were initially housed 3-5 to a cage in polypropylene cages housed in circular towers (Animal Care Systems, Inc, Centennial, CO) located within a temperature- and humidity-controlled vivarium that was maintained on a 12:12 light/dark cycle (lights on at 6 AM). Rats weighed about 250-350 gm at the start of the experiment and were at least 100 days old. Food and water were available ad libitum throughout the study. To facilitate alcohol self-administration rats were exposed to alcohol in vapor chambers (La Jolla Alcohol Research, La Jolla, CA) for 6-weeks prior to operant training using a chronic intermittent alcohol exposure (i.e., alcohol vapors were on for 14-h and off for 10-h, 5 days per week).
Drugs. Alcohol (ethyl alcohol, 190 Proof, USP grade, Koptec, King of Prussia, PA) was diluted to 10% (with RO water, w/v) and made available for consumption via standard operant chambers (described below). MG (Cayman Chemical, Ann Arbor, MI) was prepared in 20% Tween 80 (Sigma Aldrich, St. Louis, MO) in 80% sterile saline (0.9% NaCl). […] Each dose of test drug was administered via intraperitoneal (IP) injection.
Operant self-administration training and testing. Training sessions (60 min) began with the illumination of the house light and, initially, two non-contingent dipper presentations (primes) for 10 sec. The dipper access light was illuminated for the entire length of the dipper presentation time. […] When the rat pressed the active lever, the house light would turn off, dipper would protrude, and the access area light and the triple cue light above both of the levers went off. […] Stable response levels under the FR2 schedule (≤20% variability over 2 consecutive days) under 3 second dipper presentation time were required for the animal to move into the testing phase. Test sessions (60 min) were conducted once a rat met stable lever pressing criteria. Each dose of test drug and vehicle was administered (IP) 30 minutes prior to the test session in a randomized order across rats with at least 4-7 days intervening between dose administrations.
Responses obtained from the test sessions included two measures of appetitive responding (numbers of active lever presses and head entries) and two measures of consummatory responding (numbers of reinforcers earned and estimated amount of alcohol consumed in g/kg). Estimates of the amount of alcohol delivered were derived by multiplying the number of reinforcers earned by the amount of alcohol (g) per delivery (0.1 mL) of the 10% solution and divided by body weight.
Statistical Analysis. The self-administration data were analyzed with ANOVAs to compare the two measures of appetitive responding (numbers of active lever presses and head entries) and the two measures of consummatory responding (numbers of reinforcers earned and estimated total alcohol intake in g/kg).
(§2) Significant main effects were followed by Tukey's multiple comparisons test. Comparisons with p-values less than 0.05 were considered significant and those less than 0.10 were considered a trend towards significance.

For data set [5], the target named is T1, delta opioid receptors (Mus musculus, UniProt P32300).
T1 construct: endogenous in cells; host or cells: NG108-15
The conditions noted are these: NG108-15 cells; effect blocked by naloxone; cited from earlier work.

The subject of data set [6] is rats. The conditions noted are these: cited from earlier work.
For data set [7] the following is noted: NTX 1 mg/kg; cited from earlier work.
For data set [8], the system named is cFos. The experiment in a line: Immunohistochemistry: cFos activation in brain areas. It counts as in vivo, rat. The conditions noted are these: 3 mg/kg IP, 90 min after open field test, vs control.
From the text: as §1

For data set [9], the system named is female Sprague Dawley rats. Briefly: Open field test - locomotor activity. It counts as in vivo, rat. The conditions noted are these: N=4/group; for Distance traveled over 5-min time blocks: 3 mg/kg IP 30 min before 30-min test, vs control; for Total distance traveled over entire 30-min session: 3 mg/kg IP 30 min before test.
From the text: as §1
Open Field Test-Locomotor Activity. […] Drugs were administered 30 minutes before rats were placed into the open field chambers and distance traveled (cm) was tabulated in 5-min blocks across the 30-minute test.
Distance traveled over time was analyzed using a 4×6 repeated measures ANOVA with time (six 5-min blocks) as the repeating measure. Another ANOVA was conducted that included all three Drug conditions (MG, NTX, and MG+NTX).
as §2

Data set [10] deals with T2, delta opioid receptors (Homo sapiens, UniProt P41143). The conditions noted are these: cited from earlier work.
The target of data set [11] is T2, delta opioid receptors. The conditions noted are these: cited from earlier work. This is another data set of the same source.
The subject of data set [12] is cFos. The conditions noted are these: 2 mg/kg, i.p.; cited from earlier work.
Data set [13] deals with female Sprague Dawley rats. The conditions noted are these: 10 mg/kg (highest dose), progressive ratio schedule; cited from earlier work.

SMILES strings stand for the structures. Entries after “also recorded” stand apart in the source; their conditions may differ. Read-outs that look alike come from different tables or passages of the source.

T2 sequence (P41143 whole entry): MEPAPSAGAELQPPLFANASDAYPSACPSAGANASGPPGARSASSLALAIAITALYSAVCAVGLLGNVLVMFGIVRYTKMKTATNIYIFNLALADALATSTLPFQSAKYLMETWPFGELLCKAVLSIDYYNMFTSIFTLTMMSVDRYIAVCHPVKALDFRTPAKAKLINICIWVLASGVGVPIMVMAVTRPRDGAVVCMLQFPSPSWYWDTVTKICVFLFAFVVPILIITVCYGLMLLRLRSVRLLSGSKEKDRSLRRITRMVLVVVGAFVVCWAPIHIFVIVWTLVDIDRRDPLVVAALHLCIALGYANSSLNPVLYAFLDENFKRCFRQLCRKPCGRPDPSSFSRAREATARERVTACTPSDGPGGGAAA
T1 sequence (P32300 whole entry): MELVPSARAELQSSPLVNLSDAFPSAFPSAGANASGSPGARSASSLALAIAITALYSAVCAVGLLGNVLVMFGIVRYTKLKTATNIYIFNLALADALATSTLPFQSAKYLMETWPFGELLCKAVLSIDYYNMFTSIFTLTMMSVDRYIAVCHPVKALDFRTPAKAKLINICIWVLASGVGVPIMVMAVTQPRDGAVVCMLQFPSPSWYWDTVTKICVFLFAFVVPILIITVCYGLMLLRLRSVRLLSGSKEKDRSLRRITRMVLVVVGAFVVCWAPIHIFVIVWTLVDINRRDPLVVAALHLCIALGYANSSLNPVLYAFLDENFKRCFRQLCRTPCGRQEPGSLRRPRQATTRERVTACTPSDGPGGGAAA

For `CC[C@@H]1CN2CC[C@@]3(O)C(=Nc4cccc(OC)c43)[C@@H]2C[C@@H]1/C(=C\OC)C(=O)OC` [7-HMG, 7-hydroxymitragynine, reference compound], in the data set on mice of both sexes (dose not given), the Alcohol consumption result is “significantly reduced alcohol consumption as did 7-HMG”. For the same compound, in the data set with male or female rats (rat, in vivo), the “Abuse liability in ICSS” value is listed as “abuse liability was not shown in ICSS”. The Self-administration by rats entry with rats [1] is “readily self-administered by rats”.
`CC[C@@H]1CN2CCc3c([nH]c4cccc(OC)c34)[C@@H]2C[C@@H]1/C(=C\OC)C(=O)OC` [MG, mitragynine]: in the data set on mice (5-30 mg/kg), the Spontaneous locomotor activity result is listed as “no effect on spontaneous locomotor activity”. Moreover, in the data set on mice (male mice, 5, 10, 15 mg/kg), the Activity result was “significant decrease in activity”. In addition, the “Substitution for morphine in drug discrimination tests” value in data set [2] is on record as “partially substitute for morphine”. Besides, in [3], the Place conditioning entry is recorded as “induce place conditioning”. Moreover, the Alcohol consumption result in the data set on mice of both sexes (30 and 100 mg/kg, i.p.) is reported as “significantly reduced alcohol consumption”. Moreover, in the data set with male Sprague Dawley rats (3.0 mg/kg), the Heroin self-administration result is listed as “decreased heroin self-administration”. In addition, the “Responding when substituted for heroin” value with male Sprague Dawley rats (0.03-3.0 mg/kg) is given as “did not maintain responding above saline levels”. Also, the Locomotor activity result in the data set on male rats was “higher doses (10-30 mg/kg, ip) of MG but not lower doses (1, 5, 10 mg/kg, i.p.) increase locomotor activity”. Moreover, in data set [4], the “Active lever presses, post-hoc comparison with vehicle” value was “significant differences in active lever presses between vehicle and 1.0 (P<0.01) and 3.0 mg/kg (P<0.0001)”; the “Estimated total alcohol intake, post-hoc comparison with vehicle” value was “significant differences between vehicle and 1.0 (P<0.01) and 3.0 mg/kg (P<0.001)”; the “Number of head entries, comparison with vehicle” value is “significant differences between vehicle and 1.0 (P<0.01) and 3.0 mg/kg (P<0.01)”; the “Number of reinforcers earned, post-hoc comparison with vehicle” value was “significant differences between vehicle compared to 1.0 (P<0.05) and 3.0 mg/kg (P<0.0001)”. For the same compound, in [4] (0.3-3.0 mg/kg IP), the “All alcohol self-administration measures (lever presses, head entries, reinforcers, alcohol consumed)” value is reported as “All measures were significantly decreased”. Further, in data set [4] (0.3-3.0 mg/kg IP, combination vs single drugs), the “Alcohol self-administration overall, relative efficacy of drug conditions” value is “more significant effects on all four measures of alcohol self-administration than NTX”. Also, the “Active lever presses, direct comparison between drug conditions” value in data set [4] (MG vs NTX vs MG+NTX at equal doses, 3x4 ANOVA, post-hoc) is “trend for a greater effect of MG on active lever presses at the 3 mg/kg dose”. For the same compound, the “Inhibition of forskolin-stimulated cAMP” value at delta opioid receptors [5] was “inhibits forskolin-stimulated CAMP in a concentration manner”. The “Self-administration when substituted for morphine” value in the data set on rats [6] (broad range of doses, rats trained to self-administer (i.v.) morphine) is reported as “did not support self-administration”. Further, in the data set with rats [6] (prior exposure), the “i.v. morphine self-administration after prior exposure” value is “decreases i.v. morphine self-administration”. Further, the “Decrease of schedule-controlled responding by MG in presence of NTX” value in data set [7] is recorded as “did not block MG's ability to decrease schedule-controlled responding”. In addition, the “Number of cFos positive neurons in dorsal striatum” value with cFos [8] is on record as “did not differ from the control group”. Also, the “Rewarding effect in ICSS” value in the data set on male or female rats (3.2-56 mg/kg) is given as “did not find evidence that MG (3.2-56 mg/kg) was rewarding”. In addition, in [9], the “Distance traveled over 5-min time blocks” value was “tend to increase locomotor activity” and the “Total distance traveled over entire 30-min session” value is on record as “did not differ between groups”. Also, the Binding entry at delta opioid receptors [10] is given as “very low binding to delta opioid receptors”. Moreover, on delta opioid receptors [11], the Activity at receptor entry is “has activity at delta opioid receptors”.
Turning to `O=C1CC[C@@]2(O)[C@H]3Cc4ccc(O)c5c4[C@@]2(CCN3CC2CC2)[C@H]1O5` [NTX, naltrexone, reference compound], the cFos expression entry with cFos [12] is listed as “increases cFos expression in several brain areas including the NAC”. Further, in data set [4], the “Active lever presses, post-hoc comparison with vehicle” value was “significant differences in active lever presses between vehicle and 1.0 (P<0.05) and 3.0 mg/kg (P<0.05)”; the “Estimated total alcohol intake, post-hoc comparison with vehicle” value is “significant differences between vehicle and 1.0 (P<0.05) and 3.0 mg/kg (P<0.05)”; the “Number of head entries, comparison with vehicle” value is recorded as “trend towards a main effect for Dose”; the “Number of reinforcers earned, post-hoc comparison with vehicle” value was “significant differences between vehicle compared to 1.0 (P<0.05) and 3.0 mg/kg (P<0.05)”. Also, in data set [4] (0.3-3.0 mg/kg IP), the “All alcohol self-administration measures (lever presses, head entries, reinforcers, alcohol consumed)” value is recorded as “All measures were significantly decreased by naltrexone except for head entries that showed a trend towards significance”. In addition, in the data set on cFos [8], the “Number of cFos positive neurons in dorsal striatum” value is reported as “did not differ from the control group”; the “Number of cFos positive neurons in nucleus accumbens (NAC)” value was “significant difference between control and NTX (P=0.002); also recorded: increased cFos levels to a similar degree to that of MG and NTX combined”. In data set [9], the “Distance traveled over 5-min time blocks” value is “tend to increase locomotor activity” and the “Total distance traveled over entire 30-min session” value is recorded as “did not differ between groups”. In addition, the “Active lever presses, reinforcers earned, head entries” value in data set [13] was “decreased active lever presses, reinforcers earned but not head entries”.
